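96-well plates; 48 h exposure; 5 concentrations. Endpoints by linear interpolation between flanking doses. Not reached: highest tested concentration assigned. Abbreviation: GI50, concentration required for 50% inhibition of growth. At the TGI there is no net growth.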
Key:
Experiment in all cases: growth of human tumour cells (NCI), 48 h
CCRF-CEM leukemia = test system: CCRF-CEM leukemia
TK-10 renal = test system: TK-10 renal
SNB-19 CNS = test system: SNB-19 CNS
K-562 leukemia = test system: K-562 leukemia
UACC-62 melanoma = test system: UACC-62 melanoma
MCF7 breast = test system: MCF7 breast
MALME-3M melanoma = test system: MALME-3M melanoma
DU-145 prostate = test system: DU-145 prostate
HL-60(TB) leukemia = test system: HL-60(TB) leukemia
NCI-H522 lung = test system: NCI-H522 lung
HCT-116 colon = test system: HCT-116 colon
SK-MEL-5 melanoma = test system: SK-MEL-5 melanoma
HS 578T breast = test system: HS 578T breast
NCI-H23 lung = test system: NCI-H23 lung
SF-268 CNS = test system: SF-268 CNS
SR leukemia = test system: SR leukemia
IGROV1 ovarian = test system: IGROV1 ovarian
786-0 renal = test system: 786-0 renal
KM12 colon = test system: KM12 colon
A498 renal = test system: A498 renal
NCI-H460 lung = test system: NCI-H460 lung
CAKI-1 renal = test system: CAKI-1 renal
PC-3 prostate = test system: PC-3 prostate
SK-MEL-2 melanoma = test system: SK-MEL-2 melanoma
OVCAR-8 ovarian = test system: OVCAR-8 ovarian
UACC-257 melanoma = test system: UACC-257 melanoma
BT-549 breast = test system: BT-549 breast
MDA-MB-468 breast = test system: MDA-MB-468 breast
ACHN renal = test system: ACHN renal
A549 NSCLC = test system: A549 NSCLC
SNB-75 CNS = test system: SNB-75 CNS
SK-MEL-28 melanoma = test system: SK-MEL-28 melanoma
LOX IMVI melanoma = test system: LOX IMVI melanoma
COLO 205 colon = test system: COLO 205 colon
EKVX NSCLC = test system: EKVX NSCLC
T-47D breast = test system: T-47D breast
OVCAR-3 ovarian = test system: OVCAR-3 ovarian
HCT-15 colon = test system: HCT-15 colon
SF-295 CNS = test system: SF-295 CNS
RPMI-8226 leukemia = test system: RPMI-8226 leukemia
SK-OV-3 ovarian = test system: SK-OV-3 ovarian
RXF 393 renal = test system: RXF 393 renal
HOP-92 NSCLC = test system: HOP-92 NSCLC
MOLT-4 leukemia = test system: MOLT-4 leukemia
HOP-62 NSCLC = test system: HOP-62 NSCLC
MDA-MB-231 breast = test system: MDA-MB-231 breast
OVCAR-5 ovarian = test system: OVCAR-5 ovarian
MDA-MB-435 = test system: MDA-MB-435
UO-31 renal = test system: UO-31 renal
SF-539 CNS = test system: SF-539 CNS
NCI/ADR-RES ovarian = test system: NCI/ADR-RES ovarian
NCI-H226 lung = test system: NCI-H226 lung
OVCAR-4 ovarian = test system: OVCAR-4 ovarian
U251 CNS = test system: U251 CNS
HT29 colon = test system: HT29 colon
SN12C renal = test system: SN12C renal
M14 melanoma = test system: M14 melanoma

In the case of `CCOc1ccc(/C=N/NC(=O)Cn2nc(Cc3ccc([N+](=O)[O-])cc3)c3onc(C)c3c2=O)cc1`, the GI50 (CCRF-CEM leukemia) is reported as > 100 µM, the TGI (CCRF-CEM leukemia) is reported as > 100 µM and the GI50 (TK-10 renal) is reported as 2.41 µM. It also gave a TGI (TK-10 renal) of 6.62 µM, a GI50 (SNB-19 CNS) of 3.41 µM and a TGI (SNB-19 CNS) of 14.1 µM. For the same compound, the GI50 (K-562 leukemia) was > 100 µM, the TGI (K-562 leukemia) was > 100 µM and the GI50 (UACC-62 melanoma) was 12.9 µM. The TGI (UACC-62 melanoma) was 93.9 µM, the GI50 (MCF7 breast) was > 100 µM and the TGI (MCF7 breast) was > 100 µM. The GI50 (MALME-3M melanoma) was 6.71 µM, the TGI (MALME-3M melanoma) was 44.9 µM and the GI50 (DU-145 prostate) was 11.2 µM. The TGI (DU-145 prostate) was > 100 µM, the GI50 (HL-60(TB) leukemia) was > 100 µM and the TGI (HL-60(TB) leukemia) was > 100 µM. The GI50 (NCI-H522 lung) was 3.26 µM, the TGI (NCI-H522 lung) was 32.5 µM and the GI50 (HCT-116 colon) was 3.21 µM. The TGI (HCT-116 colon) was > 100 µM, the GI50 (SK-MEL-5 melanoma) was 6.85 µM and the TGI (SK-MEL-5 melanoma) was > 100 µM. The GI50 (HS 578T breast) was 2.84 µM, the TGI (HS 578T breast) was 8.23 µM and the GI50 (NCI-H23 lung) was 7.06 µM. For the same compound, the TGI (NCI-H23 lung) was 35.1 µM, the GI50 (SF-268 CNS) was 5.75 µM and the TGI (SF-268 CNS) was 68.5 µM. The GI50 (SR leukemia) was > 100 µM, the TGI (SR leukemia) was > 100 µM and the GI50 (IGROV1 ovarian) was 27.6 µM. The TGI (IGROV1 ovarian) was > 100 µM, the GI50 (786-0 renal) was 2.47 µM and the TGI (786-0 renal) was 6.64 µM. For the same compound, the GI50 (KM12 colon) was > 100 µM, the TGI (KM12 colon) was > 100 µM and the GI50 (A498 renal) was 4.88 µM. For the same compound, the TGI (A498 renal) was 21 µM, the GI50 (NCI-H460 lung) was 4.37 µM and the TGI (NCI-H460 lung) was > 100 µM. It also gave a GI50 (CAKI-1 renal) of 3.08 µM, a TGI (CAKI-1 renal) of 12.3 µM and a GI50 (PC-3 prostate) of 6.35 µM. The TGI (PC-3 prostate) was > 100 µM, the GI50 (SK-MEL-2 melanoma) was 13.8 µM and the TGI (SK-MEL-2 melanoma) was 36.9 µM. The GI50 (OVCAR-8 ovarian) was 10.1 µM, the TGI (OVCAR-8 ovarian) was > 100 µM and the GI50 (UACC-257 melanoma) was 69.9 µM. For the same compound, the TGI (UACC-257 melanoma) was > 100 µM, the GI50 (BT-549 breast) was 20.3 µM and the TGI (BT-549 breast) was > 100 µM. For the same compound, the GI50 (MDA-MB-468 breast) was 3.35 µM, the TGI (MDA-MB-468 breast) was 20 µM and the GI50 (ACHN renal) was 3.33 µM. The TGI (ACHN renal) was 11 µM, the GI50 (A549 NSCLC) was 4.19 µM and the TGI (A549 NSCLC) was > 100 µM. It also gave a GI50 (SNB-75 CNS) of 1.6 µM, a TGI (SNB-75 CNS) of 7.67 µM and a GI50 (SK-MEL-28 melanoma) of 6.14 µM. For the same compound, the TGI (SK-MEL-28 melanoma) was > 100 µM, the GI50 (LOX IMVI melanoma) was 5.34 µM and the TGI (LOX IMVI melanoma) was > 100 µM. The GI50 (COLO 205 colon) was > 100 µM, the TGI (COLO 205 colon) was > 100 µM and the GI50 (EKVX NSCLC) was > 100 µM. For the same compound, the TGI (EKVX NSCLC) was > 100 µM, the GI50 (T-47D breast) was 2.57 µM and the TGI (T-47D breast) was > 100 µM. For the same compound, the GI50 (OVCAR-3 ovarian) was 9.59 µM, the TGI (OVCAR-3 ovarian) was > 100 µM and the GI50 (HCT-15 colon) was > 100 µM. The TGI (HCT-15 colon) was > 100 µM, the GI50 (SF-295 CNS) was 3.26 µM and the TGI (SF-295 CNS) was 10.8 µM. For the same compound, the GI50 (RPMI-8226 leukemia) was > 100 µM, the TGI (RPMI-8226 leukemia) was > 100 µM and the GI50 (SK-OV-3 ovarian) was 8.24 µM. The TGI (SK-OV-3 ovarian) was 27.2 µM, the GI50 (RXF 393 renal) was 2.57 µM and the TGI (RXF 393 renal) was 7.35 µM. For the same compound, the GI50 (HOP-92 NSCLC) was 2.41 µM, the TGI (HOP-92 NSCLC) was 8.23 µM and the GI50 (MOLT-4 leukemia) was > 100 µM. The TGI (MOLT-4 leukemia) was > 100 µM, the GI50 (HOP-62 NSCLC) was 2.55 µM and the TGI (HOP-62 NSCLC) was 6.99 µM. For the same compound, the GI50 (MDA-MB-231 breast) was 2.3 µM, the TGI (MDA-MB-231 breast) was 6.44 µM and the GI50 (OVCAR-5 ovarian) was > 100 µM. The TGI (OVCAR-5 ovarian) was > 100 µM, the GI50 (MDA-MB-435) was > 100 µM and the TGI (MDA-MB-435) was > 100 µM. For the same compound, the GI50 (UO-31 renal) was 3.45 µM, the TGI (UO-31 renal) was > 100 µM and the GI50 (SF-539 CNS) was 3.1 µM. The TGI (SF-539 CNS) was 10.1 µM, the GI50 (NCI/ADR-RES ovarian) was 6.53 µM and the TGI (NCI/ADR-RES ovarian) was > 100 µM. It also gave a GI50 (NCI-H226 lung) of 2.43 µM, a TGI (NCI-H226 lung) of 6.99 µM and a GI50 (OVCAR-4 ovarian) of 3.26 µM. For the same compound, the TGI (OVCAR-4 ovarian) was > 100 µM, the GI50 (U251 CNS) was 2.3 µM and the TGI (U251 CNS) was 7.06 µM. For the same compound, the GI50 (HT29 colon) was > 100 µM, the TGI (HT29 colon) was > 100 µM and the GI50 (SN12C renal) was > 100 µM. For the same compound, the TGI (SN12C renal) was > 100 µM, the GI50 (M14 melanoma) was 28.2 µM and the TGI (M14 melanoma) was > 100 µM.

From PubChem BioAssay (NCI)
